This is an account of results in patent US5401733A, “Stable and active metabolites of 1,25-dihydroxy-16-ene-cholecalciferol” (Hoffmann-La Roche Inc., priority 1993, dated 1995).

In test [1] the test system is human keratinocytes. In words: Keratinocyte proliferation, assay 1 (KGM supplemented to 1.5 mM CaCl2, 5 days). Format: cell-based. The following applies: for inhibition at 0.03 µM / inhibition at 0.1 µM / inhibition at 0.3 µM / inhibition at 1 µM: Homo sapiens, Keratinocyte; for inhibition at 0.03 µM: assay 1, 0.03 μM; for inhibition at 0.1 µM: assay 1, 0.1 μM; for inhibition at 0.3 µM: assay 1, 0.3 μM; for inhibition at 1 µM: assay 1, 1.0 μM; for antiproliferative activity, assay 1 (in words): assay 1, lower doses. Here is the method: (§1) Quantitation of Morphological Changes During Keratinocyte Proliferation Materials and Methods
(§2) Human neonatal foreskins were collected by circumcision and placed into tubes containing Dulbecco's Modified Eagle's Medium (DMEM) with 10% serum. On arrival at the laboratory, they were mechanically trimmed of excess dermis, and treated with a solution of trypsin/EDTA (0.05%/0.02%) at 4° C. overnight. The epidermis was stripped from the dermis, agitated in buffered saline containing soybean trypsin inhibitor to remove basal keratinocytes and the stratum cornea layer was removed. The separated cells were centrifuged, resuspended in the above media, counted, and the cells plated onto plastic culture dishes or plates at a density of 25,000 cells/cm^2 in keratinocyte growth media (KGM®-modified MCDB 153, Clonetics, Inc., Catalog #CC3001) according to protocols developed by Boyce and Ham (In Vitro Models for Cancer Research III, 246-274, 1986) for MCDB 153 media. The cultures were incubated in humidified chambers with 5% CO2 at 37° C. The cultures were refed with fresh media two to three times per week. Prior to reaching confluency the cells were replated (passage one) at 25,000 cells/well on 6-well cluster plates (Costar catalog #3506) in KGM.
(§3) 1 milligram quantities were received in amber glass vials, and stored at -20° C. Sufficient 100% ethanol was added directly to the vials to obtain a millimolar solution that was subsequently aliquoted into small amber vials, overlayed with argon gas and stored at […] Each stock solution was thawed once, used and discarded. Aliquots from the stock solutions were diluted directly into medium and then serially diluted from micromolar to 10^-12 M concentrations. Dilutions from 10^-8 M to 10^-12 M had ethanol added for a final concentration of 0.1%. Stock solutions were used within one month. Control cultures were treated with 0.1% ethanol.
(§4) Approximately 24 hours after passage one, the cells were refed with fresh KGM supplemented to 1.5 mM CaCl2 (assay 1) containing the test compound. In a second assay (assay 2), the cells were grown in KGM without calcium supplementation to stimulate more proliferation and grown for 7 days instead of 5 days. Compounds were typically tested at 4 concentrations in triplicate wells. At the termination of the experiment, prior to the cultures reaching confluency, the cells were enumerated as follows. Dishes were rinsed with phosphate buffered saline, and then incubated with trysin/EDTA solution for 15 minutes. Cells were suspended, an aliquot placed into isotonic buffered saline and counted on an electronic particle counter (Coulter Counter). The counter was periodically calibrated for the correct size of keratinocytes. Each well was counted in triplicate. The number of cells per dish were calculated according to dilution factors used and results shown below in Table 3 are presented as percent inhibition obtained in control cultures.

For test [2], the system named is human keratinocytes. Description: Keratinocyte proliferation, assay 2 (KGM without calcium supplementation, 7 days). It counts as cell-based. To be noted: for inhibition at 0.03 µM / inhibition at 0.1 µM / inhibition at 0.3 µM / inhibition at 1 µM: Homo sapiens, Keratinocyte, Exp. 1, read-out: Percentage Inhibition of Controls, Exp. 1; for inhibition at 0.03 µM: assay 2, 0.03 μM; for inhibition at 0.1 µM: assay 2, 0.1 μM; for inhibition at 0.3 µM: assay 2, 0.3 μM; for inhibition at 1 µM: assay 2, 1.0 μM; for antiproliferative activity, assay 2 (in words): assay 2, lower doses; for dose response (in words): low calcium and more rapidly dividing cells; for proliferation of human keratinocytes / skin cells (in words): assays 1 and 2 not distinguished. The protocol: as §1, §2, §3, §4

The mark [3] stands for this setting: Exp. 2, read-out: Percentage Inhibition of Controls, Exp. 2.
Setting [4] is: average of Exp. 1 and 2, read-out: Percentage Inhibition of Controls, Average.

A word on the inhibition: it is the drop in the measured response relative to a control, in per cent.

The structures appear in SMILES notation.

With `C=C1/C(=C\C=C2/CCC[C@]3(C)C([C@H](C)CCCC(C)(C)O)=CC[C@@H]23)C[C@@H](O)C[C@@H]1O` [1,25(OH)2-16-ene-D3, 1,25-dihydroxy-16-ene-cholecalciferol], in the test with human keratinocytes [1] (setting [3]), the inhibition at 0.03 µM amounted to 88.4%, the inhibition at 0.1 µM worked out at 83.6%, the inhibition at 0.3 µM stood at 89% and the inhibition at 1 µM amounted to 57.1%. In addition, in the test with human keratinocytes [1] (setting [4]), the inhibition at 0.03 µM was 89.8%, the inhibition at 0.1 µM turned out to be 82.3%, the inhibition at 0.3 µM is 84.5% and the inhibition at 1 µM is 58.5%. Also, the “antiproliferative activity, assay 1 (in words)” value in the test with human keratinocytes [1] is recorded as “some antiproliferative activity at lower doses, although this activity is not dose dependent”. Moreover, in the test on human keratinocytes [2], the inhibition at 0.03 µM worked out at 75.6 ± 3.35%, the inhibition at 0.1 µM is 56.2 ± 5.7%, the inhibition at 0.3 µM is 36 ± 10.3% and the inhibition at 1 µM came to 22.4 ± 8.55%. In the test with human keratinocytes [2], the “antiproliferative activity, assay 2 (in words)” value is listed as “strong antiproliferative activity at lower doses” and the “dose response (in words)” value is on record as “good dose response curve”.
Regarding `C=C1/C(=C\C=C2/CCC[C@]3(C)C([C@H](C)CCC(=O)C(C)(C)O)=CC[C@@H]23)C[C@@H](O)C[C@@H]1O` [1,25(OH)2-16-ene-24-oxo-D3, 1,25-dihydroxy-16-ene-24-oxo-cholecalciferol], in the test on human keratinocytes [1] (setting [3]), the inhibition at 0.03 µM came out at 82.8%, the inhibition at 0.1 µM came to 108%, the inhibition at 0.3 µM turned out to be 73.3% and the inhibition at 1 µM was 73.1%. In addition, in the test on human keratinocytes [1] (setting [4]), the inhibition at 0.03 µM is 80.1%, the inhibition at 0.1 µM stood at 89.1%, the inhibition at 0.3 µM came out at 67.8% and the inhibition at 1 µM was 68.1%. In the test with human keratinocytes [1], the “antiproliferative activity, assay 1 (in words)” value is listed as “some antiproliferative activity at lower doses, although this activity is not dose dependent”. Moreover, in the test with human keratinocytes [2], the inhibition at 0.03 µM is 63 ± 7.21%, the inhibition at 0.1 µM turned out to be 45.3 ± 9.48%, the inhibition at 0.3 µM is 31.1 ± 11.8% and the inhibition at 1 µM was found to be 17.4 ± 8.13%. In the test on human keratinocytes [2], the “antiproliferative activity, assay 2 (in words)” value is “strong antiproliferative activity at lower doses”; the “proliferation of human keratinocytes / skin cells (in words)” value was “restrained the proliferation of skin cells”; the “dose response (in words)” value is “good dose response curve”. Besides, the “proliferation of human keratinocytes / skin cells (in words)” value with human keratinocytes [2] (listed as I) was “decrease proliferation of human keratinocytes”.
